According to ChEMBL document CHEMBL1138458, “Fructose-1,6-bisphosphatase inhibitors. 1. Purine phosphonic acids as novel AMP mimics” (J Med Chem, 2009):

Assays:
[1] = biological target: T1, Fructose-1,6-bisphosphatase 1 (Homo sapiens, UniProt P09467); test: Inhibition of human liver FBPase expressed in Escherichia coli by spectrophotometry
T1 sequence (P09467 whole entry): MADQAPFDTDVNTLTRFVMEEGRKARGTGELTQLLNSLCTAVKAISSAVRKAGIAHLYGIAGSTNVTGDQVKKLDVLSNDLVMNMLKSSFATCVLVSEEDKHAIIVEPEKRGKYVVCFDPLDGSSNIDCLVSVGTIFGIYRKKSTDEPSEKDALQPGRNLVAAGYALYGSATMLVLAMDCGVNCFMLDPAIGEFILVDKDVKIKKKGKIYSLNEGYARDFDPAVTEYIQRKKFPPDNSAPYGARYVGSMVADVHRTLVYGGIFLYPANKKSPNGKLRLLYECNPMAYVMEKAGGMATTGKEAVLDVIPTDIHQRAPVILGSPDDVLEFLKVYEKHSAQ

Hepatocyte = test: Inhibition of glucose production in rat primary hepatocytes treated for 15 to 30 mins prior to gluconeogenic substrate dihydroxyacetone addition; format: functional, cell-based
[2] = biological target: T2, Fructose-1,6-bisphosphatase 1 (Rattus norvegicus, UniProt P19112); test: Inhibition of rat liver FBPase
T2 sequence (P19112 whole entry): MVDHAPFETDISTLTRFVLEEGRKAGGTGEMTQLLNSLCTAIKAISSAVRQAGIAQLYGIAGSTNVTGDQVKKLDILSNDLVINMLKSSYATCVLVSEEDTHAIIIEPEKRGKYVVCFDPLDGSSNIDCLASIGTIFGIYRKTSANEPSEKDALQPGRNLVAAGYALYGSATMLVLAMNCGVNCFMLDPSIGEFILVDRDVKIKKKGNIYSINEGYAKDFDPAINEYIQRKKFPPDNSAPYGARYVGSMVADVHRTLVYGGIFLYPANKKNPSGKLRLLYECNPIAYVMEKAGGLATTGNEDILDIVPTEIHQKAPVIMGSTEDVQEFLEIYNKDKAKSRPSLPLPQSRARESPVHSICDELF

Liver [3] = test: Drug concentration in overnight-fasted Sprague-Dawley rat liver assessed as {5-[6-Amino-9-(2,2-dimethyl-propyl)-9H-purin-8-yl]-furan-2-yl}- phosphonic acid level at 50 mg/kg, po after 2 hrs; format: ADME, organism-based; set-up: dose 50 mg/kg, route oral; details: in vivo
Liver [4] = test: Drug concentration in overnight-fasted Sprague-Dawley rat liver assessed as {5-[6-Amino-9-(2,2-dimethyl-propyl)-9H-purin-8-yl]-furan-2-yl}- phosphonic acid level at 50 mg/kg, po after 1 hr; format: ADME, organism-based; set-up: dose 50 mg/kg, route oral; details: in vivo
Rattus norvegicus = test: Oral bioavailability in fasted Sprague-Dawley rat assessed as urinary excretion of phosphonic acid up to 300 mg/kg; format: ADME, organism-based, Urine; details: in vivo
Adenosine kinase = Adenosine kinase (Homo sapiens, UniProt P55263); test: Inhibition of human recombinant adenosine kinase expressed in Escherichia coli
[5] = Inhibition of pig heart AMP deaminase; set-up: species or system Sus scrofa
[6] = Inhibition of New Zealand white rabbit liver phosphofructokinase; set-up: species or system Oryctolagus cuniculus

Sequence of Adenosine kinase (P55263 whole entry): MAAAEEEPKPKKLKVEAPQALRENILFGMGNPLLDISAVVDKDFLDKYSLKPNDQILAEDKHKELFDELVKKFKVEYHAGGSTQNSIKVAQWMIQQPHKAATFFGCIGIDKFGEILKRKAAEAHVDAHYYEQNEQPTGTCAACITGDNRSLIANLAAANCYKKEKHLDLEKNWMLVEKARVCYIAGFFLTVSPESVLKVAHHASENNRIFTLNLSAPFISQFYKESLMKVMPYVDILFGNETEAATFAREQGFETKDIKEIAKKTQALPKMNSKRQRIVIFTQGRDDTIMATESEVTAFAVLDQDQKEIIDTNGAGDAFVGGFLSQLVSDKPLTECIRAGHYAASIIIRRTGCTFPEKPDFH

## Nc1ncnc2c1nc(-c1ccc(C(=O)O)o1)n2CCc1ccccc1
[1]
  IC50: > 100 µM

## Nc1ncnc2c1nc(-c1ccc(P3(=O)OCCSSCCO3)o1)n2CCc1ccccc1
Hepatocyte
  EC50: 250 µM

## CN(C)c1ncnc2c1nc(-c1ccc(P(=O)(O)O)o1)n2CCc1ccccc1
[1]
  IC50: 250 µM

## Nc1ncnc2c1nc(-c1ccc(P(=O)(O)O)o1)n2CC(c1ccccc1)c1ccccc1
[1]
  IC50: 70 µM

## Nc1ncnc2c1nc(-c1ccc(S(=O)(=O)O)o1)n2CCc1ccccc1
[1]
  IC50: 150 µM

## CC(C)Cn1c(-c2ccc(P(=O)(O)O)o2)nc2c(N)ncnc21
[2]
  IC50: 7 µM
Hepatocyte
  EC50: 18 µM
[1]
  IC50: 1.5 µM

## CC(C)(C)Cn1c(Cn2ccnc2P(=O)(O)O)nc2c(N)ncnc21
[1]
  IC50: > 100 µM

## Nc1ncnc2c1nc(CCOP(=O)(O)O)n2CCc1ccccc1
[1]
  IC50: 40 µM

## CC(C)(CCl)Cn1c(-c2ccc(P(=O)(O)O)o2)nc2c(N)ncnc21
[2]
  IC50: > 2 µM
Hepatocyte
  EC50: 7.5 µM

## CC(Cc1nc2c(N)ncnc2n1CCc1ccccc1)[PH](=O)O (stereo unspecified)
[1]
  IC50: > 1000 µM

## CCn1c(-c2ccc(P(=O)(O)O)o2)nc2c(N)ncnc21
[1]
  IC50: 1.8 µM

## CNc1ncnc2c1nc(-c1ccc(P(=O)(O)O)o1)n2CCc1ccccc1
[1]
  IC50: 50 µM

## CC(C)C(=O)OCOP(=O)(OCOC(=O)C(C)C)c1ccc(-c2nc3c(N)ncnc3n2CCc2ccccc2)o1
Hepatocyte
  EC50: 25 µM

## CC(=O)OC1CCCC(OP(=O)(OC2CCCC(OC(C)=O)C2)c2ccc(-c3nc4c(N)ncnc4n3CCc3ccccc3)o2)C1 (stereo unspecified)
Hepatocyte
  EC50: 400 µM

## Nc1ncnc2c1nc(NCCOP(=O)(O)O)n2[C@@H]1O[C@H](CO)[C@@H](O)[C@H]1O
[1]
  IC50: 140 µM

## CC(C)(CO)Cn1c(-c2ccc(P(=O)(O)O)o2)nc2c(N)ncnc21
[2]
  IC50: > 20 µM
Hepatocyte
  EC50: 50 µM

## Nc1ncnc2c1nc(-c1ccc(P(=O)(O)O)s1)n2CCc1ccccc1
[1]
  IC50: 48 µM

## Nc1ncnc2c1nc(/C=C/C(=O)O)n2[C@@H]1O[C@H](CO)[C@@H](O)[C@H]1O
[1]
  IC50: > 100 µM

## C[C@H]1O[C@@H](n2c(NCCP(=O)(O)O)nc3c(N)ncnc32)[C@H](O)[C@@H]1O
[1]
  IC50: 100 µM

## CN(C)CC(C)(C)Cn1c(-c2ccc(P(=O)(O)O)o2)nc2c(N)ncnc21
[1]
  IC50: > 10 µM

## COc1ccc(COP(=O)(OCc2ccc(OC)c(C#N)c2)c2ccc(-c3nc4c(N)ncnc4n3CCc3ccccc3)o2)cc1C#N
Hepatocyte
  EC50: > 100 µM

## CC(C)C(=O)OCOP(=O)(OCOC(=O)C(C)C)c1ccc(-c2nc3c(N)ncnc3n2CC(C)(C)C)o1
Liver [3]
  Drug uptake: 2 nmol/g
Liver [4]
  Drug uptake: 3.5 nmol/g
Rattus norvegicus
  F: 8.1%
Hepatocyte
  EC50: 3 µM

## Nc1ncnc2c1nc(CCC(=O)O)n2[C@@H]1O[C@H](CO)[C@@H](O)[C@H]1O
[1]
  IC50: > 100 µM

## Nc1ncnc2c1nc(NCCC(=O)O)n2[C@@H]1O[C@H](CO)[C@@H](O)[C@H]1O
[1]
  IC50: > 100 µM

## CC(C)(C)Cn1c(-c2ccc(P(=O)(OCOC(=O)C(C)(C)C)OCOC(=O)C(C)(C)C)o2)nc2c(N)ncnc21
Rattus norvegicus
  F: 5.3%

## Nc1ncnc2c1nc(-c1ccc(P(=O)(O)O)o1)n2C1CC1
[1]
  IC50: 1.5 µM

## Nc1ncnc2c1nc(-c1ccc(P(=O)(O)O)o1)n2CCc1ccccc1
Adenosine kinase
  IC50: > 100 µM
Rattus norvegicus
  F: < 5%
[5]
  IC50: 6.7 µM
[2]
  IC50: 40 µM
[6]
  EC50: > 200 µM
Hepatocyte
  EC50: 5 µM

## CC(C)Cn1c(-c2ccc(P(=O)(O)O)o2)nc2c(N)nc(S(C)(=O)=O)nc21
[1]
  IC50: 28 µM

## Nc1ncnc2c1nc(CCO[PH](=O)O)n2CCc1ccccc1
[1]
  IC50: > 1000 µM
